We go through 31 molecules from patent US9771370B2, “Compounds for the inhibition of indoleamine-2,3-dioxygenase” (Merck Patent GmbH, priority 2014, dated 2017).

Where only a bound is given, the exact number is not on record here.

Chain of Recombinant human IDO (P14902 whole entry): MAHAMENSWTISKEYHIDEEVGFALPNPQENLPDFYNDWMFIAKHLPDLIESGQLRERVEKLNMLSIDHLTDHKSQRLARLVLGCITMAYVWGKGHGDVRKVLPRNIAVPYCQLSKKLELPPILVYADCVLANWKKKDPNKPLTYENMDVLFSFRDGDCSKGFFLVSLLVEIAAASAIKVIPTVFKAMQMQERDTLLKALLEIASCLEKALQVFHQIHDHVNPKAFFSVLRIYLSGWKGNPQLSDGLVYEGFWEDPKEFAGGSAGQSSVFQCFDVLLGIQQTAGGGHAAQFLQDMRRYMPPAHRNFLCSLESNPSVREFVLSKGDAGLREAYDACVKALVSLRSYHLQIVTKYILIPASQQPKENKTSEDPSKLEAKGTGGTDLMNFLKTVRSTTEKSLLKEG

This test addresses Recombinant human IDO (Homo sapiens, UniProt P14902). The test can be described thus: Bridge-IT tryptophan fluorescence assay of human IDO-1 inhibition. In kind it is biochemical. The conditions noted are these: recombinant human IDO 7.5 nM, L-tryptophan. The method, then:
Measurement of human IDO-1 inhibition is performed in 384 well format using the Bridge-IT® tryptophan Fluorescence Assay (Mediomics, LLC, St. Louis, Mo., U.S.A.).
The reaction is initiated by the addition of L-Tryptophan (Sigma) at a final concentration of 100 μM in assay buffer. After 90 minutes of incubation at 37° C., the reaction is stopped by transferring 1 μl of the reaction mixture to 9 μl of Bridge-IT assay solution A. After 30 min of incubation at 30° C., the fluorescence intensity was measured at λex=485 nm and λem=665 nm using Perkin Elmer Envision® Multilabel Reader.
Measurement of human IDO-1 inhibition was performed in 384-well format using the BRIDGE-IT® tryptophan Fluorescence Assay (Mediomics, LLC, St. Louis, Mo., U.S.A.). […] After 30 minutes of pre-incubation at 25° C., the reaction was initiated by the addition of L-Tryptophan (Sigma) at a final concentration of 50 μM in assay buffer. After 60 minutes of incubation at 25° C., the reaction is stopped by transferring 1 μl of the reaction mixture to 9 μl of Bridge-IT assay solution A. After 30 min of incubation at 30° C., the fluorescence intensity was measured at λex=485 nm and λem=665 nm using Perkin Elmer ENVISION® Multilabel Reader.
The IC50 is the concentration needed to halve the response being measured. For the molecule `NC1CCC(F)(CCC2c3ccccc3-c3cncn32)CC1` (mixture of isomers) [Compound 104a, 4-fluoro-4-(2-[5H-imidazo[4,3-a]isoindol-5-yl]ethyl)cyclohexan-1-amine], the IC50 was greater than 1000 nM.
The result for `CC(C)(C)C(=O)N1CCC(C(O)CC2c3ncccc3-c3cncn32)CC1` (single isomer, unassigned) [Compound 88b, 1-[4-[1-hydroxy-2-[4,6,9-triazatricyclo[6.4.0.0^[2,6]]dodeca-1(8),2,4,9,11-pentaen-7-yl]ethyl]piperidin-1-yl]-2,2-dimethylpropan-1-one] reads greater than 1000 nM; that for `OC(CC1c2cc(F)ncc2-c2cncn21)C1CCCCC1` (single isomer, unassigned) [Compound 24a, 1-cyclohexyl-2-[10-fluoro-4,6,11-triazatricyclo[6.4.0.0^[2,6]]dodeca-1(8),2,4,9,11-pentaen-7-yl]ethan-1-ol], greater than 1000 nM.
Regarding `OC(CC1CCCCC1)CC1c2ncccc2-c2cncn21` (single isomer, unassigned) [Compound 62c, 1-cyclohexyl-3-[4,6,9-triazatricyclo[6.4.0.0^[2,6]]dodeca-1(8),2,4,9,11-pentaen-7-yl]propan-2-ol], the IC50 is greater than 1000 nM.
The result for `Fc1cccc2c1C(CCC1(F)CCOCC1)n1cncc1-2` (single isomer, unassigned) [Compound 95b, 6-fluoro-5-[2-(4-fluorooxan-4-yl)ethyl]-5H-imidazo[4,3-a]isoindole] reads 100 to 1000 nM; that for `OC(CC1c2nc(OC3CC3)ccc2-c2cncn21)C1CCC(F)(F)CC1` (single isomer, unassigned) [Compound 69c, 2-[10-cyclopropoxy-4,6,9-triazatricyclo[6.4.0.0^[2,6]]dodeca-1(8),2,4,9,11-pentaen-7-yl]-1-(4,4-difluorocyclohexyl)ethan-1-ol], greater than 1000 nM; that for `OC(CC1c2c(Cl)cccc2-c2cncn21)C1(F)CCCCC1` (single isomer, unassigned) [Compound 83d, 2-[6-chloro-5H-imidazo[4,3-a]isoindol-5-yl]-1-(1-fluorocyclohexyl)ethan-1-ol], less than 100 nM.
Next, `Oc1cccc2c1-c1cncn1C2CCC1(F)CCC(O)CC1` (stereo not shown) [Compound 44a, 5-(2-(1-fluoro-4-hydroxycyclohexyl)ethyl)-5H-imidazo[5,1-a]isoindol-9-ol]: 100 to 1000 nM; `NC(=O)CC1CCC(F)(CCC2c3c(F)cccc3-c3cncn32)CC1` (single isomer, unassigned) [Compound 116a, 2-[4-Fluoro-4-[2-[6-fluoro-5H-imidazo[4,3-a]isoindol-5-yl]ethyl]cyclohexyl]acetamide]: greater than 1000 nM.
The result for `OC(CC1c2nc(F)ccc2-c2cncn21)C1CCC(F)(F)CC1` (single isomer, unassigned) [Compound 26a, 1-(4,4-difluorocyclohexyl)-2-[10-fluoro-4,6,9-triazatricyclo[6.4.0.0^[2,6]]dodeca-1(8),2,4,9,11-pentaen-7-yl]ethan-1-ol] reads greater than 1000 nM; that for `NC(=O)C1CCC(F)(CCC2c3c(F)cccc3-c3cncn32)CC1` (single isomer, unassigned) [Compound 81a, 4-fluoro-4-[2-[6-fluoro-5H-imidazo[4,3-a]isoindol-5-yl]ethyl]cyclohexane-1-carboxamide], 100 to 1000 nM; that for `OCC1CCC(F)(CCC2c3c(F)cccc3-c3cncn32)CC1` (single isomer, unassigned) [Compound 84b, [4-fluoro-4-[2-[6-fluoro-5H-imidazo[4,3-a]isoindol-5-yl]ethyl]cyclohexyl]methanol], greater than 1000 nM.
In the case of `OC1CCC(F)(CCC2c3c(Cl)cccc3-c3cncn32)CC1` (single isomer, unassigned) [Compound 71c, 4-[2-[6-chloro-5H-imidazo[4,3-a]isoindol-5-yl]ethyl]-4-fluorocyclohexan-1-ol], the IC50 is greater than 1000 nM.
As to `OCC1CCC(F)(CCC2c3c(F)cccc3-c3cncn32)CC1` (single isomer, unassigned) [Compound 84a, [4-fluoro-4-[2-[6-fluoro-5H-imidazo[4,3-a]isoindol-5-yl]ethyl]cyclohexyl]methanol], the 50% inhibitory concentration (IC50) is greater than 1000 nM.
As for `CC(C)(O)C1CCC(F)(CCC2c3ccccc3-c3cncn32)CC1` (single isomer, unassigned) [Compound 61b, 2-[4-fluoro-4-[2-[5H-imidazo[4,3-a]isoindol-5-yl]ethyl]cyclohexyl]propan-2-ol], the IC50 was greater than 1000 nM.
The result for `OC1CCC(F)(CCC2c3cc(F)ncc3-c3cncn32)CC1` (single isomer, unassigned) [Compound 58d, 4-fluoro-4-[2-[10-fluoro-4,6,11-triazatricyclo[6.4.0.0^[2,6]]dodeca-1(8),2,4,9,11-pentaen-7-yl]ethyl]cyclohexan-1-ol] reads greater than 1000 nM.
Take `NC(=O)C1CCC(F)(CCC2c3ccccc3-c3cncn32)CC1` (single isomer, unassigned) [Compound 79c, 4-fluoro-4-[2-[5H-imidazo[4,3-a]isoindol-5-yl]ethyl]cyclohexane-1-carboxamide]: the IC50 is less than 100 nM.
For the molecule `OC(CC1c2ncccc2-c2cncn21)C1CCC(F)(F)CC1` (single isomer, unassigned) [Compound 22b, 1-(4,4-difluorocyclohexyl)-2-[4,6,9-triazatricyclo[6.4.0.0^[2,6]]dodeca-1(8),2,4,9,11-pentaen-7-yl]ethan-1-ol], the 50% inhibitory concentration (IC50) was greater than 1000 nM.
With `OC1CCC(CCC2c3ncccc3-c3cncn32)CC1` (stereo not shown) [Compound 47, 4-(2-[4,6,9-triazatricyclo[6.4.0.0^[2,6]]dodeca-1(8),2,4,9,11-pentaen-7-yl]ethyl)cyclohexan-1-ol], the IC50 was greater than 1000 nM.
Take `COc1ccc2c(n1)C(CCC1(F)CCC3(CC1)CC3)n1cncc1-2` (single isomer, unassigned) [Compound 54b, 7-(2-{6-fluorospiro[2.5]octan-6-yl}ethyl)-10-methoxy-4,6,9-triazatricyclo[6.4.0.0^[2,6]]dodeca-1(8),2,4,9,11-pentaene]: the concentration for half-maximal inhibition (IC50) was greater than 1000 nM.
Next, `NS(=O)(=O)C1CCC(F)(CCC2c3ccccc3-c3cncn32)CC1` (single isomer, unassigned) [Compound 121d, 4-fluoro-4-[2-[5H-imidazo[4,3-a]isoindol-5-yl]ethyl]cyclohexane-1-sulfonamide]: less than 100 nM; `FC1(CCC2c3ccccc3-c3cncn32)CCOCC1` (single isomer, unassigned) [Compound 94a, 5-[2-(4-fluorooxan-4-yl)ethyl]-5H-imidazo[4,3-a]isoindole]: greater than 1000 nM.
The result for `OC1(C2CCC(F)(CCC3c4c(Cl)cccc4-c4cncn43)CC2)CC1` (stereo not shown) [Compound 106b, 1-[4-(2-[6-chloro-5H-imidazo[4,3-a]isoindol-5-yl]ethyl)-4-fluorocyclohexyl]cyclopropan-1-ol] reads 100 to 1000 nM.
Next, `OC1CCC(F)(CCC2c3cccc(F)c3-c3cncn32)CC1` (single isomer, unassigned) [Compound 35b, 4-fluoro-4-(2-(9-fluoro-5H-imidazo[5,1-a]isoindol-5-yl)ethyl)cyclohexanol]: 100 to 1000 nM.
Take `OCC1CCC(F)(CCC2c3c(Cl)cccc3-c3cncn32)CC1` (single isomer, unassigned) [Compound 105c, [4-[2-[6-chloro-5H-imidazo[4,3-a]isoindol-5-yl]ethyl]-4-fluorocyclohexyl]methanol]: the half-inhibitory concentration (IC50) was less than 100 nM.
Next, `OC(CC1c2nc(OC3CC3)ccc2-c2cncn21)C1CCC(F)(F)CC1` (single isomer, unassigned) [Compound 69d, 2-[10-cyclopropoxy-4,6,9-triazatricyclo[6.4.0.0^[2,6]]dodeca-1(8),2,4,9,11-pentaen-7-yl]-1-(4,4-difluorocyclohexyl)ethan-1-ol]: greater than 1000 nM; `Fc1ccc(F)c2c1-c1cncn1C2CCC1(F)CCCCC1` (single isomer, unassigned) [Compound 37a, 6,9-difluoro-5-(2-(1-fluorocyclohexyl)ethyl)-5H-imidazo[5,1-a]isoindole]: greater than 1000 nM.
The result for `NC(=O)C1CCC(F)(CCC2c3c(Cl)cccc3-c3cncn32)CC1` (single isomer, unassigned) [Compound 99c, 4-[2-[6-chloro-5H-imidazo[4,3-a]isoindol-5-yl]ethyl]-4-fluorocyclohexane-1-carboxamide] reads less than 100 nM; that for `OC1(C2CCC(F)(CCC3c4ccccc4-c4cncn43)CC2)CC1` (single isomer, unassigned) [Compound 60a, 1-[4-fluoro-4-[2-[5H-imidazo[4,3-a]isoindol-5-yl]ethyl]cyclohexyl]cyclopropan-1-ol], less than 100 nM; that for `OC1(C2CCC(F)(CCC3c4c(Cl)cccc4-c4cncn43)CC2)CC1` (mixture of isomers) [Compound 106a, 1-[4-(2-[6-chloro-5H-imidazo[4,3-a]isoindol-5-yl]ethyl)-4-fluorocyclohexyl]cyclopropan-1-ol], less than 100 nM.
Regarding `OC1CCC(F)(CCC2c3c(Cl)cccc3-c3cncn32)CC1` (single isomer, unassigned) [Compound 71b, 4-[2-[6-chloro-5H-imidazo[4,3-a]isoindol-5-yl]ethyl]-4-fluorocyclohexan-1-ol], the half-inhibitory concentration (IC50) fell in the range of 100 to 1000 nM.
